Key:
tumour spheroids = test: Degradation of tumour spheroids; format: cell-based, human
Text: Tumour recurrence post-chemotherapy is caused by the regrowth of the surviving innately drug-resistant cancer stem cells that remain in tumour niches during and post-chemotherapy. The expansion of this chemo-resistant cancer cell population, coupled with upregulation of pro-survival pathways due to drug pressure, is thought to be responsible for the development of chemo-resistant recurrent disease. Further, the inherent heterogeneity of ovarian tumours consists of epithelial cells with varying potential for stemness, and a population of cancer cells with varying mesenchymal status and invasiveness potential. Therefore, to improve survival, a practical approach is the use of novel therapies that can induce cell death in these various subtypes of ovarian cancer cells. TRX-E-002-1 was assessed against ovarian cancer stem cell line OCSC2, characterised by their expression of stem cell markers including CD44 and […] [22]. A major characteristic of these cells is that they are drug resistant, able to form self-renewing spheroids in non-adherent culture, and recreate disseminated drug-resistant ovarian tumours that have a high degree of heterogeneity similar to the clinical profile observed in patients when inoculated into the peritoneal cavity of an immune-compromised mouse.

[1] = test system: disseminated ovarian cancer model; test: Disseminated ovarian cancer model, intraperitoneal dosing; format: in vivo, mice
Text: In vivo, TRX-E-002-1, formulated in 20% SBECD, was active in a disseminated ovarian cancer model and a recurrent ovarian cancer model in which tumour recurrence is investigated following initial treatment of the OCSC2-inoculated mice with paclitaxel. In both models, TRX-E-002-1 inhibited tumour growth following once daily intraperitoneal administration.
The combination of TRX-E-002-1 and cisplatin was investigated in the murine model of disseminated ovarian cancer.

[2] = test system: OCSC2 ovarian cancer stem cells; test: Western blots of caspase 2 and signalling molecules in OCSC2 cells; format: cell-based, human; settings: Western blot
Method: The role of caspases and intracellular signalling pathways in the anticancer activity of TRX-E-002-1 was investigated in OCSC2 ovarian cancer stem cells. […] TRX-E-002-1 also modulated phosphorylation of intracellular signalling molecules, with decreased levels of pERK (phosphorylated extracellular signal-regulated kinase) and increased levels of phosphorylated c-Jun (p–c-Jun). Activated p–c-Jun levels increased progressively over the 24-h incubation period in response to both concentrations of TRX-E-002-1 tested. […] Increased p–c-Jun and decreased pERK levels were observed following incubation of OCSC2 cells after only 2-h’ exposure, indicating these changes are one of the earliest effects of TRX-E-002-1 treatment.

[3] = Rat pharmacokinetics after single intraperitoneal injection of 100 mg/kg; format: in vivo, Sprague–Dawley rats; settings: for AUC(0-inf) / Tmax / half-life: Sprague-Dawley, rat, ip, plasma
Method: The pharmacokinetics of TRX-E-002-1 was evaluated in male female Sprague–Dawley rats following a single intraperitoneal injection of 100 mg/kg TRX-E-002-1 in 20% SBECD vehicle. Absorption was rapid, with C max mean plasma concentrations reached 0.25/1 h after dosing in female/male rats. […] Mean plasma levels decreased to below the limit of quantification by 24 h (not shown). The AUC0−∞ value was 29,537 and 44,702 ng h/mL in female and male rats, respectively (Table 2). High tissue levels were observed 0.5–6 h after dosing, with levels higher than the plasma concentration in pancreas, ovaries, large intestine, skin, kidneys, liver, stomach and adrenal glands (not shown). Treatment of plasma and tissue samples with glucuronidase indicated the presence of low levels of a glucuronide conjugate of TRX-E-002-1 (not shown). Other metabolic pathways have not yet been investigated. […] Parent drug was excreted in the urine and faeces, and high levels of the glucuronide metabolite were found in the faeces.
Tissue concentrations of total drug (parent + glucuronide) were also similar to those in plasma except in liver, where they were 2–3 times higher.

[4] = Rat GLP 28-day repeat-dose intraperitoneal toxicity study; format: in vivo, SD rats; settings: for half-life / Tmax / NOAEL at 28 days / Cmax: rat; for half-life / Tmax / Cmax: plasma, ip; for half-life: read-out: estimated plasma elimination half-life; for NOAEL at 28 days: in vivo
Method: TRX-E-002-1 peak plasma concentrations were observed 0.25 – 0.5 h after dosing, except for mid-dose females on Day 1 (T max = 1 h). […] Mean plasma TRX-E-002-1 concentrations were roughly proportional to dose and were generally higher in males than in females. […] AUClast values on Day 28 tended to be higher than those on Day 1, except in low-dose males and high-dose females (Table 2), indicating slight accumulation of TRX-E-002-1 with daily dosing.
No deaths were observed during the study. […] At 10 mg/kg, reduced quantity of faeces was observed during the first 1 or 2 weeks in all animals. During the recovery period, faeces were normal, although anogenital staining persisted up to 4 days after cessation of dosing in one high-dose male.
Body weight gain was reduced over Days 1–28 in high-dose males, and during the first treatment week in mid-dose males and high-dose females. Mean body weights at the end of the dosing period were 99.5, 95.7 and 89.2% of control values in males at 0.5, 3 and 10 mg/kg/day, respectively; corresponding values in females were 99.8, 97.8 and 97.8%, respectively.
Treatment-related macroscopic abnormalities at the terminal necropsy were limited to distention of the caecum and/or colon in both sexes at 10 mg/kg/day, and obstruction of the colon in 3/10 males at this dose level. No macroscopic findings were present after the recovery period. […] Thymic weight was reduced in males at 3 and 10 mg/kg/day and was increased in females at 10 mg/kg/day. Testicular and epididymal weights were still reduced in the 10 mg/kg/day group after the recovery period.
Similar changes were also seen after the 14-day recovery period (significant in males only).
In summary, the major toxicity finding in rats dosed once daily for 28 days with TRX-E-002-1 was degeneration of seminiferous tubules in the testes and of sperm in the epididymides at the high dose of 10 mg/kg/day. Other findings including transient faecal changes, reductions in weight gain and food consumption, serum biochemical changes, macroscopic lesions in the large intestine and atrophy of the salivary glands were considered non-adverse. The NOAEL was considered to be 3 mg/kg/day in male rats and 10 mg/kg/day in females. The greater sensitivity of male rats compared with females would appear to be associated with higher cumulative systemic exposure over the 28-day repeat-dose period.

COc1cc([C@@H]2COc3c(ccc(O)c3C)[C@@H]2c2ccc(O)cc2)cc(OC)c1O [TRX-E-002-1, (+) cis-4-(para-hydroxyphenyl)-7,4′-dihydroxy-3′,5′-dimethoxy-8-methylisoflavan]
effect on tumour spheroids (tumour spheroids): promoted the degradation | tumour growth ([1]; 100 mg/kg i.p. once daily in 20% SBECD for 13–14 days): significantly inhibited | tumour growth during the 16-day treatment period ([1]; TRX-E-002-1 100 mg/kg once daily, cisplatin 5 mg/kg once weekly, or both): significantly inhibited | tumour growth during the 5-week post-treatment period ([1]; after 16-day treatment, TRX-E-002-1 100 mg/kg once daily, cisplatin 5 mg/kg once weekly, or both): decreased | levels of inactive caspase 2 ([2]; both concentrations): decreased | levels of phosphorylated c-Jun (p–c-Jun) ([2]; progressive over 24 h): increased | levels of pERK ([2]; seen after 2 h exposure): decreased | time by which mean plasma levels were below the limit of quantification ([3]; 100 mg/kg i.p.): ≤ 24 h | AUC(0-inf) ([3]; female rats, 100 mg/kg i.p.): 29500 ng·h/mL | Tmax ([3]; female rats, 100 mg/kg i.p.): 0.25 h | AUC(0-inf) ([3]; male rats, 100 mg/kg i.p.): 44700 ng·h/mL | Tmax ([3]; male rats, 100 mg/kg i.p.): 1 h | half-life ([3]; female rats, 100 mg/kg i.p., read-out: T ½ (plasma elimination half-life) (converted)): ~1.3 h | half-life ([3]; male rats, 100 mg/kg i.p., read-out: plasma elimination half-life (converted)): ~1.9 h | plasma unconjugated TRX-E-002-1 as share of total levels (parent + glucuronide) ([3]; female rats, up to 6 h after dosing): approximately 90% | decreases in total protein, albumin and globulin ([4]; 10 mg/kg/day, males and females, end of 28-day treatment): ≤ 8% | deaths ([4]; 0.5, 3 or 10 mg/kg/day up to 28 days): No deaths | half-life ([4]; both sexes, Sprague-Dawley, Day 1, across sexes and doses): 0.7 to 1.4 h | half-life ([4]; both sexes, Sprague-Dawley, Day 28): 0.9 to 2.3 h | Tmax ([4]; both sexes, Sprague-Dawley, all groups except mid-dose females on Day 1, read-out: time of peak plasma concentrations): 0.25 to 0.5 h | NOAEL at 28 days ([4]; female, SD): 10 mg/kg/day | Cmax ([4]; female, SD, Day 1, 0.5 mg/kg, females): 33.4 ng/mL | Cmax ([4]; female, SD, Day 1, 3 mg/kg, females): 150 ng/mL | Tmax ([4]; female, Sprague-Dawley, 3 mg/kg, mid-dose females, Day 1, read-out: T max): 1 h | Cmax ([4]; female, Sprague-Dawley, Day 1, 10 mg/kg, females): 535 ng/mL | mean body weight at end of dosing period ([4]; females, 0.5 mg/kg/day): 99.8 % of control values | mean body weight at end of dosing period ([4]; females, 3 mg/kg/day): 97.8 % of control values | mean body weight at end of dosing period ([4]; females, 10 mg/kg/day): 97.8 % of control values | mean body weight after the 14-day recovery period ([4]; high-dose males): 93.6 % of control value | NOAEL at 28 days ([4]; male, SD): 3 mg/kg/day | Cmax ([4]; male, SD, Day 1, 3 mg/kg, males): 181 ng/mL | Cmax ([4]; male, SD, Day 1, 10 mg/kg, males): 780 ng/mL | Cmax ([4]; male, Sprague-Dawley, Day 1, 0.5 mg/kg, males): 35.4 ng/mL | mean body weight at end of dosing period ([4]; males, 0.5 mg/kg/day): 99.5 % of control values | mean body weight at end of dosing period ([4]; males, 3 mg/kg/day): 95.7 % of control values | mean body weight at end of dosing period ([4]; males, 10 mg/kg/day): 89.2 % of control values

Reference: publication PMC5306062, “Pharmacology and toxicology of the novel investigational agent Cantrixil (TRX-E-002-1)” (Cancer Chemotherapy and Pharmacology, 2016)
